Usually IC50 stands for the concentration needed to halve the response being measured. By EC50 is commonly meant the concentration needed to bring the measured effect to its halfway point.

IC50 and EC50 data for four compounds are collected here from ChEMBL document CHEMBL1201862, “PubChem BioAssay data set” (2004).

What all share (assay type): functional
Assay [1] has as its target T1, Sentrin-specific protease 7 (Homo sapiens, UniProt Q9BQF6).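 Also: Luminescence-based dose-response confirmation of ultra-high-throughput screening hits, measuring inhibition of SENP7.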
T1 sequence (Q9BQF6 whole entry): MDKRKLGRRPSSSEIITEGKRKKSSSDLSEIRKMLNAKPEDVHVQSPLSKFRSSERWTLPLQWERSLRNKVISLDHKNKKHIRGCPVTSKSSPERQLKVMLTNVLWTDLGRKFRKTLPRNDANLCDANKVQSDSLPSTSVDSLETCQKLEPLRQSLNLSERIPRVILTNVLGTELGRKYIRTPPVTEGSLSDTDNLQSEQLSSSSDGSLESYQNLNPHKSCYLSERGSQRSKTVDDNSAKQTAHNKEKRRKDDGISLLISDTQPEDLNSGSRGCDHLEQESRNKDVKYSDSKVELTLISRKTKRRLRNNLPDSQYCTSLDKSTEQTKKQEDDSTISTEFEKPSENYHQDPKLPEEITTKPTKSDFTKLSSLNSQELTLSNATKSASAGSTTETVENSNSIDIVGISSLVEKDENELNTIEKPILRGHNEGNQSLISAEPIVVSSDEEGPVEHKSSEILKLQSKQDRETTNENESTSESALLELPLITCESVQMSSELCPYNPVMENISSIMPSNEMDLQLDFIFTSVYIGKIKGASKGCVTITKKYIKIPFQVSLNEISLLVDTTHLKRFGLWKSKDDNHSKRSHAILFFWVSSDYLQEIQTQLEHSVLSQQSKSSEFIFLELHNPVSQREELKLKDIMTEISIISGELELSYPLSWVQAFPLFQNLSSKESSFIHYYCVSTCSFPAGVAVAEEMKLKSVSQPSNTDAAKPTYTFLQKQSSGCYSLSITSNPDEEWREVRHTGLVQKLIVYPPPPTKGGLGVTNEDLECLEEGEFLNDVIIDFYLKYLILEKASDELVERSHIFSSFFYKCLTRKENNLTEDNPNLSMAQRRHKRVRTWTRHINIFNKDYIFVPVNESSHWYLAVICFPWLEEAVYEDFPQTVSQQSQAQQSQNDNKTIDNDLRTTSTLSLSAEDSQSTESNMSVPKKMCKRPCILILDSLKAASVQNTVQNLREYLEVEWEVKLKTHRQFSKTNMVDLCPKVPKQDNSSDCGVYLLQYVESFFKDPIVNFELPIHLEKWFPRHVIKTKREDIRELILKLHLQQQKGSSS

Assay [2] has as its target T2, Sentrin-specific protease 8 (Homo sapiens, UniProt Q96LD8).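 Also: luminescence read-out of SENP8 inhibition, dose-response confirmation following an ultra-high-throughput screen.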
T2 sequence (Q96LD8 whole entry): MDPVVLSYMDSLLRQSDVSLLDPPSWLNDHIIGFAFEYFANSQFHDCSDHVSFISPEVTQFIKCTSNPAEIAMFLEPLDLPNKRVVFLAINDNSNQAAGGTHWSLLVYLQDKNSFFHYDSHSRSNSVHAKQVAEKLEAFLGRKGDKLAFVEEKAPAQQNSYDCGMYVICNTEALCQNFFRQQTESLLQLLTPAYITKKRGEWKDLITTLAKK

For assay [3], the target named is T3, Apoptotic protease-activating factor 1 (Homo sapiens, UniProt O14727).
T3 sequence (O14727 whole entry): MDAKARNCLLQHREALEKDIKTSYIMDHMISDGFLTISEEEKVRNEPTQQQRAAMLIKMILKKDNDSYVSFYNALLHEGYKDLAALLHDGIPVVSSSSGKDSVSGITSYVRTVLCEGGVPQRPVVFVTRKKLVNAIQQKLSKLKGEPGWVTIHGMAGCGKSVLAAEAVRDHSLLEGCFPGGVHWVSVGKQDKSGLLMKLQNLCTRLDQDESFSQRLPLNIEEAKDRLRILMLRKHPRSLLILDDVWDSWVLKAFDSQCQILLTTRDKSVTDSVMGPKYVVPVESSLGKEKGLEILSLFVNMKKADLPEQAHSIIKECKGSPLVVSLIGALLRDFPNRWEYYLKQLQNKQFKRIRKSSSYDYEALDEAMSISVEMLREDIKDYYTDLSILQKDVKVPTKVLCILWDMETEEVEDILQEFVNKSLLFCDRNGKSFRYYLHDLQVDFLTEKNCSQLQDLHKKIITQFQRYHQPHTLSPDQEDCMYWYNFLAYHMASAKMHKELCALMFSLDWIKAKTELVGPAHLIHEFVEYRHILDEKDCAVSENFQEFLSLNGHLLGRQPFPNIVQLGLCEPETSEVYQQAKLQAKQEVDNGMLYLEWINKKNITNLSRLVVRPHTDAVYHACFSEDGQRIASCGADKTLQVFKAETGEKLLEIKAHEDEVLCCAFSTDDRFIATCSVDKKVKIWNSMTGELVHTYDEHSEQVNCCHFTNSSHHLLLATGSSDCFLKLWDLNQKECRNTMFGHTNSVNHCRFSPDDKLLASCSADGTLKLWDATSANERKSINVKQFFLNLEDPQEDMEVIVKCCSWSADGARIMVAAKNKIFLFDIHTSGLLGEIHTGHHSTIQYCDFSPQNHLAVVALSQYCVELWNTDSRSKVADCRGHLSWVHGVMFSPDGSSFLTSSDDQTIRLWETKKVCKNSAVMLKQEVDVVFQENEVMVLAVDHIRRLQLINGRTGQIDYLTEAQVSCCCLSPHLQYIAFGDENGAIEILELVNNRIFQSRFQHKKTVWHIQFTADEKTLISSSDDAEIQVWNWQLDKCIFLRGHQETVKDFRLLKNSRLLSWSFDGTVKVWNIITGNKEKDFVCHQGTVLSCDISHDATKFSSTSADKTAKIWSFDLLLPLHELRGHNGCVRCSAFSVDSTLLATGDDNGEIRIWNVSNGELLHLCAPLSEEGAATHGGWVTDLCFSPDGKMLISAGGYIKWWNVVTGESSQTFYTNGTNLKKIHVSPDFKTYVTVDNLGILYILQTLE

Assay [4] has as its system BJ. Description: BJ-TERT-LT-ST fibroblast viability loss – cell-based, RAS-independent, luminescence, dose response (AID 1935).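 Also: BJ fibroblasts immortalized with TERT plus LT and ST oncogenes.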 As to conditions: Homo sapiens.
Assay [5] deals with BJ. Description: BJ-TERT fibroblast viability loss – cell-based, RAS-independent, luminescence, dose response (AID 1933). As to conditions: Homo sapiens.
Assay [6] can be described thus: DRD fibroblast viability loss – cell-based, non-viral oncogenic, luminescence, dose response (AID 1934). The settings on record: Homo sapiens.

Activity calls are given as the source filed them.

With `CCc1cc[n+](C2=C([N-]S(=O)(=O)c3cccs3)C(=O)c3ccccc3C2=O)cc1`, the half-maximal inhibitory concentration (IC50) was 8.3 µM (active) in assay [1], 8.48 µM (active) in assay [2] and 11.2 µM (active) in assay [3].
Turning to `O=C(NC1=C(NC2CCS(=O)(=O)C2)C(=O)c2ccccc2C1=O)c1ccccc1` (stereo not drawn), in assay [3], the IC50 is 2.1 µM (active). Moreover, the EC50 is > 75 µM (not active) in the assay with BJ [4], 11 µM (inconclusive) with BJ [5] and 14.6 µM (active) in assay [6].
Regarding `CCCC(=O)NC(c1ccc(N(C)C)cc1)c1ccc2cccnc2c1O` (stereo not drawn), the EC50 with BJ [4] was 2.72 µM (active); in the assay with BJ [5] it was 2.5 µM (active); in assay [6] it was 2.54 µM (active).
For `COc1ccccc1N(/N=C1\Sc2ccccc2C1=O)C(C)=O`, the values for the IC50 in assay [1], in assay [2] and in assay [3] were 6.78 µM (active), 5.39 µM (active) and 13.3 µM (active), respectively.
